Consider 91 compounds from a melting point compilation (Tetko et al.; mined from patent text by program, amines drawn as free bases though some values may be those of a salt).

Molecules are shown by their SMILES.

What is called melting point is the temperature of the solid-liquid transition. Take `COc1ccnc(C(=O)N[C@H]2COC[C@H](OCCC(C)C)[C@@H](OCCC(C)C)[C@H](C)OC2=O)c1O`: the melting point fell in the range of 61 to 70 °C.
`c1ccc(COc2ncnc3nc[nH]c23)cc1` returned a melting point of 175 to 177 °C.
`CN(NC(=O)c1ccccc1CO)C(=S)Nc1cccc(F)c1`: the melting point was in the range of 136 to 137 °C.
Compound `Cc1onc(NS(=O)(=O)c2cccs2)c1Br` showed a melting point of 156 to 158 °C.
For the compound `COC(=O)CCCC(=O)c1ccc(OC)c(CCC(=O)OC)n1`, the melting point is 64 to 66 °C.
`Cc1ccc(C(N)=S)c2ccccc12` gave a melting point of 143 to 145 °C.
`N#CCCNc1nonc1-c1nc2ccccc2n1CC(=O)c1ccc(Cl)cc1` had a melting point of 191 to 192 °C.
For `O=C(Nc1ccc(-n2nc(C(F)(F)F)cc2C(F)(F)F)cc1)c1c(F)cc(Cl)cc1Cl` the value was 185 to 188 °C; for `Cc1cccc(-c2n[nH]cc2-c2ccnc(-c3ccc(OCc4cn(C)cn4)cc3)c2)n1`, 191 °C.
For `Oc1nn(Cc2ccccc2)cc1CCCC1OCCO1` the value was 93 to 94 °C; for `Cc1nc(NC(=O)Nc2ccc(N3CCN(C(=O)Nc4ccc(OCCO)cc4Cl)CC3)nc2)sc1C`, 184 to 185 °C.
Consider `Cc1cc(Br)c(C)cc1N`, for which the melting point fell in the range of 92 to 93 °C.
Consider `CNC(=O)ON=C1COCCS1`, for which the melting point lay in the range of 105 to 106 °C.
As to `O=Cc1c2ccccc2cc2oc3ccccc3c12`, the melting point was 128 to 132 °C.
`COc1ccc(CSc2cnc(O)nc2O)cc1`: the melting point was determined as 277 °C.
Regarding `O=C1N(c2ccc(I)cc2)CCCC1(Cl)Cl`, the melting point lay in the range of 153 to 155 °C.
As to `COC(=O)c1ccccc1Oc1ccccc1[N+](=O)[O-]`, the melting point lay in the range of 49 to 50 °C.
With `CS(=O)(=O)CCN1CCC2(CC1)CC(=O)c1cc(NS(C)(=O)=O)ccc1O2`, the melting point lay within 250 to 251 °C.
Turning to `CC(C)(C)OC(=O)c1ncn2c1C1CCCN1C(=O)c1cnccc1-2` (stereo unspecified), the melting point was in the range of 217 to 218 °C.
For `Cc1cc(SCCC#Cc2ccc(C(F)(F)F)cc2)ccc1OCC(=O)O` the value was 129 to 130 °C; for `Nc1ccccc1Oc1ccc2ncccc2c1`, 115 to 117 °C.
Compound `O=C1NC(=O)C(Cc2ccc(OCCON=Cc3ccc4ccccc4c3)cc2)S1` (stereo unspecified) yielded a melting point of 108 to 111 °C.
As to `CNC(=O)Cn1c(-c2ccc(F)cc2)nc2cccnc21`, the melting point is 215 to 217 °C.
`COCCNC(=O)c1cc2c(nc(C)n2C)c2c1CCC(c1ccccc1)O2` (stereo unspecified) yielded a melting point of 254 to 256 °C.
In the case of `Cc1nc(-c2ccc(-c3ccccc3S(=O)(=O)Nc3onc(C)c3C)cc2)oc1C`, the melting point was in the range of 96 to 102 °C.
Compound `CN1CCC(OC2c3ccccc3CCn3cc(-c4ccc(NC(=O)C(C)(C)C)cc4)nc32)CC1` (stereo unspecified) registered a melting point of 120 °C.
The compound `CNC(=O)S(=O)(=O)Nc1sc(CC(C)C)cc1-c1ccc(Cn2c(-c3ccccc3)nc(OC)c2C=O)cc1` came in with a melting point of 102 to 103 °C.
`COc1cccc(N(CCN2CCC(C(=O)c3ccc(F)cc3)CC2)C(=O)c2ccc([N+](=O)[O-])cc2)c1` displayed a melting point of 133 to 135 °C.
As to `CC(C)Oc1cc(CC(=O)O)c(F)cc1Cl`, the melting point was 57 to 58 °C.
Regarding `C1=CC(n2nc(-c3ccc4ccccc4c3)cc2-c2ccccc2)(n2nc(-c3ccc4ccccc4c3)cc2-c2ccccc2)CC=C1c1ccccc1`, the melting point amounted to 287 °C.
Turning to `CN1CCN(C2=Nc3cc(Cl)ccc3Cn3nnnc32)CC1`, the melting point is 228 to 230 °C.
As for `COc1c(C)cc(NC(=O)C(C)(C)C)cc1C`, the melting point was 126 to 128 °C.
Take `CC(C)(C)OC(=O)N1CCN(c2ccc(OC[C@@]3(C)Cn4cc([N+](=O)[O-])nc4O3)cc2Cl)CC1`: the melting point lay in the range of 207 to 210 °C.
On to `CSCC(C)(C)c1nnc(N)s1`, for which the melting point was in the range of 117 to 120 °C.
As to `CN1CCCC(C(=O)OC2c3ccccc3C(=O)N2c2ccc3ccc(Cl)nc3n2)C1` (stereo unspecified), the melting point amounted to 211 °C.
Compound `CC(C)=CC(C#N)NC(=O)c1cc(C)nn1C` (stereo unspecified) came in with a melting point of 92.5 to 94 °C.
`COC(=O)CS(=O)(=O)c1ccc(OC)c(OC)c1` yielded a melting point of 81 to 83 °C.
`COc1ccc(NC(=O)c2ccc(F)c(F)c2)cc1NCc1cccs1` had a melting point of 187 to 189 °C.
For the compound `O=C(NS(=O)(=O)NCC1CCCO1)OCc1ccccc1` (stereo unspecified), the melting point was in the range of 96 to 97 °C.
Consider `Nc1ccn(C2C=CC(CO)O2)c(=O)n1` (stereo unspecified), for which the melting point fell in the range of 167 to 169 °C.
For the compound `O=C(OC(c1ccccc1)c1ccccc1)C(OC(=S)n1ccnc1)c1ccccc1` (stereo unspecified), the melting point was in the range of 109 to 110 °C.
For `COc1cc(O)cc(C)c1C=CC(=O)c1ccc(O)cc1`, the melting point fell in the range of 197 to 198 °C.
The compound `NCc1ccc(-c2ccccc2-c2nnn[nH]2)cc1` came in with a melting point of over 260 °C.
On to `Cc1cccc2nc3c(=O)[nH][nH]c(=O)c3c(O)c12`, for which the melting point lay in the range of 167 to 168 °C.
`NCCNS(=O)(=O)c1cc(NC(=O)c2cnn3c(C(F)F)cc(-c4ccc(C(F)(F)F)cc4)nc23)c(Cl)s1` showed a melting point of 150 °C.
For `CCn1ccc2ncnc(Oc3ccc(NC(=O)Nc4cccc(C(F)(F)F)c4)c(Cl)c3)c21` the value was 172 to 176 °C.
As for `CC(O)=C(C#N)C(=O)Nc1ccc(Br)cc1Br`, the melting point was 181 °C.
Turning to `CCOC(=O)c1cc2c3ccccc3ncn2c1`, the melting point was in the range of 138 to 139 °C.
Consider `COc1ncc(-c2ccc3nnn(Cc4ccc5ncccc5c4)c3n2)cn1`, for which the melting point fell in the range of 201 to 203 °C.
Turning to `CC(C)(CCc1ccc(OCCO)cc1)NCC(O)c1ccccc1` (stereo unspecified), the melting point was 118 to 120 °C.
`COc1ccc2c(c1)CCCC2(N)CO` (stereo unspecified) had a melting point of 89 to 95.6 °C.
`COC(=O)C1=C(C)NC(C)=C(C(=O)OC)C1C`: the melting point lay in the range of 155 to 156 °C.
For `NC(=S)NCc1cccs1` the value was 99 to 101 °C; for `Nc1nc(C(F)(F)F)cc(C(F)(F)F)n1`, 94.5 to 96 °C.
`c1ccc2c(c1)Cn1c(cc3ccccc31)CN2` came in with a melting point of 176 to 177 °C.
For `NC(=O)c1ncn2c1NCCC2c1cccc(C(F)(F)F)c1` (stereo unspecified) the value was 179 to 181 °C; for `O=C1/C(=C(/c2ccccc2)N2CCCC2)Sc2ccccc21`, 157 °C.
`COC(=O)c1cc(OCCOc2cccc3ccccc23)cc(OCCOc2cccc3ccccc23)c1` had a melting point of 132 to 137 °C.
For `COc1cc2c(cc1OC)C(C=Cc1ccc(N(C)C)cc1)=NN=C(C)C2` the value was 170 to 172 °C; for `COC(=O)c1cc(-c2nc(COc3ccc(CO)cc3OC)c(C)o2)ccc1C`, 145 to 146 °C.
For `CNC(=S)NS(=O)(=O)c1cc(CCNC(=O)c2cc(C(C)(C)C)ccc2OC)ccc1OC` the value was 165 to 168 °C; for `CCCCCCCCCCCCCCCCCCSCC(CO)C(C)C` (stereo unspecified), 29 °C.
For `Cn1ccc2c1CC(c1ccccc1)CC2=O` (stereo unspecified) the value was 166 to 167 °C; for `CNC(=O)C(=N[C@@H](C)c1ccccc1)C(C)(C)C`, 120 °C; for `Cc1ccccc1C1CC(=O)c2c(C)c[nH]c2C1` (stereo unspecified), 190 to 191 °C.
With `CCNc1ccc(Cc2ccc(NCC)c3ccccc23)c2ccccc12`, the melting point was in the range of 165 to 168 °C.
`CN1CCC(=O)C(=C(c2ccccc2)c2ccccc2)C1` showed a melting point of 129 to 131 °C.
`CCCCNc1c(C(=O)OCC)cnc(O)c1C(C)=O`: the melting point was 134 to 136 °C.
`O=c1nc(N(Cc2nnn[nH]2)c2ccc(Cl)cc2)sc2ncccc12` had a melting point of 258 to 259 °C.
Compound `CCCCCCCCCCc1ccc2c(c1)-n1c(C)nnc1C(C)N=C2c1ccccc1` (stereo unspecified) returned a melting point of 111 to 112 °C.
As to `Cc1cn(-c2cccc(C3=Nc4ccc(-c5ccc(F)cc5)cc4NC(=O)C3)c2)c(C)n1`, the melting point amounted to 188 °C.
In turn, `COc1ccc(C2=CNC(=O)NC2)cc1OC1Cc2ccccc2C1` registered a melting point of 198 to 201 °C.
Take `COc1c2c(c(OC)c(OC)c1OC)CCC(CCI)CC2`: the melting point is 75 to 82 °C.
For `Fc1ccc(N=Cc2ccccc2)c(F)c1` the value was 51 to 52 °C; for `CN1C(=O)Cn2c(nn(Cc3ccccc3)c2=O)-c2cc(Cl)ccc21`, 120 to 122 °C; for `Cn1c(C(F)(F)F)cc(=O)n(-c2ccc3snc(C(C)(C)C(=O)NS(C)(=O)=O)c3c2)c1=O`, 264 to 265 °C.
For `O=C1N(c2cc(Cl)nc(Cl)c2)C(=O)[C@]2(Cc3ccc(OC(F)(F)F)cc3)C[C@@H](c3cc[nH]c3C(=O)C(F)(F)F)CN12` the value was 167 °C; for `FC(F)(F)c1ccc(N=c2ccc3nc4ccccc4sc-3c2)cc1`, 207 to 208 °C; for `O=CNNc1cccc([N+](=O)[O-])c1`, 168 to 169 °C.
In turn, `O=C(O)CCCCCCCCC1CO1` (stereo unspecified) showed a melting point of 48 °C.
With `NC(=O)c1nc(-c2cccnc2Cl)nc2c1[nH]c(=O)n2-c1ccccc1`, the melting point fell in the range of 283 to 286 °C.
Compound `Cc1nc(N(C)c2cc(Cl)cc(Cl)c2)sc1-c1ccnc(Nc2ccc(N3CCOCC3)cc2)n1` came in with a melting point of 216 to 218 °C.
Compound `CCN(CC)CCNC(=O)c1cc(Cl)c(N)cc1OCC(=O)Cc1ccccc1` had a melting point of 138 to 139 °C.
For `Cn1c2ccccc2c2nc3cccc(C=O)c3nc21` the value was 219 to 221 °C.
For `COc1cc(OC)c(C(=O)CCCCCl)cc1N` the value was 87 to 88 °C.
Compound `CN(C)CCC1(CO)c2ccccc2N(C)c2cc(Cl)ccc21` (stereo unspecified) yielded a melting point of 120 °C.
Compound `Nc1cccc2c1C1CCCCN1C2=O` (stereo unspecified) came in with a melting point of 183 °C.
Compound `COc1ccc(Cl)cc1C(=O)NC1Cc2ccc(S(=O)(=O)NC(=O)NCC3CCCC3)cc2C1` (stereo unspecified) gave a melting point of 194 to 196 °C.
For the compound `COC(=O)c1ccccc1NC(=O)NCc1ccccc1`, the melting point was in the range of 140 to 141 °C.
Take `O=C(O)CCCC(=O)CCCc1ccccc1CCCC(=O)O`: the melting point was found to be 87 °C.
Take `CC(=O)Nc1nc2c(s1)-c1nc(-c3cc(C#CC4CCNCC4)ccc3Cl)ncc1CC2`: the melting point was 162 °C.
